From PubChem BioAssay (NCI) come the findings set out here.

Some test systems named below: MOLT-4 leukemia; SF-268 CNS; RPMI-8226 leukemia; T-47D breast; HCT-116 colon; SW-620 colon; SF-539 CNS; NCI-H226 lung; IGROV1 ovarian; OVCAR-4 ovarian.
What all share (experiment): NCI tumour cell line growth inhibition, 48 h

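Cultured in 96-well plates, cells were exposed to test compound for 48 hours across five concentrations. GI50 is the concentration that inhibits growth by half. TGI marks complete inhibition of growth.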

With `Brc1cccc(/C=C/CN2CCN(CCOC(c3ccccc3)c3ccccc3)CC2)c1`, the TGI in the experiment on MOLT-4 leukemia turned out to be 31.1 µM; in the experiment with SF-268 CNS, 39.6 µM; in the experiment on RPMI-8226 leukemia it was 19.4 µM; in the experiment with T-47D breast, 18.6 µM; in the experiment on HCT-116 colon it was 28.9 µM; with SW-620 colon, 45.4 µM. Further, the TGI worked out at 32.4 µM in the experiment with SF-539 CNS, 38.2 µM with NCI-H226 lung, 29.8 µM in the experiment on IGROV1 ovarian and 25.2 µM in the experiment on OVCAR-4 ovarian.
`CCCCCCCCCOC(=O)c1cnc(Cl)cn1`: the TGI in the experiment with MOLT-4 leukemia was over 100 µM; in the experiment with SF-268 CNS, 46.3 µM; in the experiment on RPMI-8226 leukemia, 63.5 µM; in the experiment on T-47D breast it was 51.2 µM; in the experiment on HCT-116 colon, 31.5 µM; with SW-620 colon it was 32.5 µM. For the same compound, the TGI with SF-539 CNS is 58.1 µM; in the experiment with NCI-H226 lung it was 32.7 µM; with IGROV1 ovarian, 36 µM; in the experiment with OVCAR-4 ovarian, 71.1 µM.
On to `C/C(=N/NC(=S)Nc1ccccc1Cl)c1ccccn1`, for which the TGI stood at 3.62 µM in the experiment with MOLT-4 leukemia; 34.6 µM with SF-268 CNS; 47.3 µM with RPMI-8226 leukemia; 6.82 µM in the experiment with T-47D breast; 14.2 µM with HCT-116 colon; 29.9 µM in the experiment with SW-620 colon. Further, the TGI came to 7.56 µM in the experiment on SF-539 CNS, 1.65 µM with NCI-H226 lung, 13.9 µM with IGROV1 ovarian and 14.5 µM in the experiment on OVCAR-4 ovarian.
Turning to `CCN(CC)c1ccc(/C=C(\C#N)c2nc(N)nc(N3N=C(C)CC3(C)C)n2)cc1`, the TGI in the experiment on MOLT-4 leukemia was over 100 µM; with SF-268 CNS, over 54 µM; with RPMI-8226 leukemia, over 100 µM; with T-47D breast, 39.6 µM; with HCT-116 colon it was 34.1 µM; with SW-620 colon, over 100 µM. Also, the TGI worked out at 19.9 µM in the experiment with SF-539 CNS, 14.6 µM in the experiment on NCI-H226 lung, 34.2 µM with IGROV1 ovarian and 30.5 µM in the experiment on OVCAR-4 ovarian.
Take `S=c1ssc2c3ssc(=S)c3n(Cc3ccccc3)c12`: the TGI was 38.9 µM in the experiment with MOLT-4 leukemia; over 100 µM in the experiment on SF-268 CNS; over 100 µM with RPMI-8226 leukemia; over 100 µM in the experiment on T-47D breast; over 100 µM in the experiment on HCT-116 colon; over 100 µM with SW-620 colon. For the same compound, the TGI in the experiment on SF-539 CNS is 58.9 µM; in the experiment with NCI-H226 lung, over 100 µM; in the experiment with IGROV1 ovarian it was over 100 µM; with OVCAR-4 ovarian, over 100 µM.
As to `Cc1ccc(S(=O)ON2CCC(C(=O)O)(c3ccccc3)CC2)cc1` (centres undefined), the TGI in the experiment with MOLT-4 leukemia, in the experiment with SF-268 CNS, with RPMI-8226 leukemia, in the experiment with T-47D breast, in the experiment on HCT-116 colon and in the experiment with SW-620 colon was over 100 µM each time. Further, the TGI in the experiment on SF-539 CNS, with NCI-H226 lung, in the experiment on IGROV1 ovarian and with OVCAR-4 ovarian was over 100 µM in each case. Also, the GI50 with SF-539 CNS is over 100 µM.
In the case of `CCCCCCCCC[C@@H]1C[C@@H]2CCC3C(C(=O)OC)=C(C)NC(=N1)N32` (some centres undefined), the TGI with MOLT-4 leukemia is over 100 µM; in the experiment with SF-268 CNS, 23.5 µM; with RPMI-8226 leukemia, over 100 µM; in the experiment with T-47D breast it was 25.3 µM; in the experiment with HCT-116 colon, 17.3 µM; in the experiment on SW-620 colon, over 100 µM. In addition, the TGI in the experiment on SF-539 CNS came out at 12.2 µM; in the experiment with NCI-H226 lung, 29.2 µM; with IGROV1 ovarian, 19.4 µM; in the experiment with OVCAR-4 ovarian, 25.4 µM.
`CCN(CC)C(=S)SS(=O)(=O)c1ccccc1C(=O)O`: the TGI in the experiment on MOLT-4 leukemia, in the experiment on SF-268 CNS, in the experiment with RPMI-8226 leukemia, in the experiment on T-47D breast, with HCT-116 colon and in the experiment on SW-620 colon was over 100 µM throughout. Besides, the TGI with SF-539 CNS, in the experiment with NCI-H226 lung, in the experiment on IGROV1 ovarian and in the experiment with OVCAR-4 ovarian was over 100 µM throughout.
With `C[C@]12CC[C@@H]3c4ccc(O)cc4CC[C@H]3[C@@H]1C/C(=C\c1ccc([N+](=O)[O-])cc1)C2=O`, the TGI in the experiment on MOLT-4 leukemia, in the experiment on SF-268 CNS, with RPMI-8226 leukemia, in the experiment with T-47D breast, in the experiment on HCT-116 colon and with SW-620 colon was over 100 µM throughout. In addition, the TGI with SF-539 CNS is 75 µM; in the experiment with NCI-H226 lung, over 100 µM; in the experiment with IGROV1 ovarian, over 100 µM; with OVCAR-4 ovarian, over 100 µM.
`COC(=O)c1ccccc1C1CN=NC12Cc1ccc3ccccc3c1C2=O` (centres undefined): the TGI in the experiment on MOLT-4 leukemia was over 100 µM; with SF-268 CNS it was over 100 µM; in the experiment on RPMI-8226 leukemia, over 100 µM; in the experiment on T-47D breast, 96.9 µM; with SW-620 colon, over 100 µM; in the experiment on SF-539 CNS, over 100 µM. For the same compound, the TGI in the experiment with NCI-H226 lung, in the experiment on IGROV1 ovarian and in the experiment with OVCAR-4 ovarian was over 100 µM each time.
Take `Cn1cc(C(=O)c2nccc3c2cnc2ccccc23)ccc1=O`: the TGI in the experiment with MOLT-4 leukemia, in the experiment on SF-268 CNS, with RPMI-8226 leukemia, in the experiment with T-47D breast, in the experiment with HCT-116 colon and in the experiment with SW-620 colon was over 100 µM in each case. Further, the TGI in the experiment on SF-539 CNS, in the experiment with NCI-H226 lung and in the experiment with OVCAR-4 ovarian was over 100 µM each time.
`Cn1c(=O)oc2cc(C(=O)CSC(=S)N3CCCCCC3)ccc21`: the TGI with MOLT-4 leukemia, in the experiment with SF-268 CNS, in the experiment with RPMI-8226 leukemia, with T-47D breast, with HCT-116 colon and with SW-620 colon was over 100 µM in each case. Besides, the TGI in the experiment on SF-539 CNS, with NCI-H226 lung, in the experiment with IGROV1 ovarian and with OVCAR-4 ovarian was over 100 µM each time.
On to `CN(C)c1nc(N(C)C)nc(N(C)C)n1`, for which the TGI with MOLT-4 leukemia was 136 µM; in the experiment on SF-268 CNS it was over 150 µM; in the experiment on RPMI-8226 leukemia it was over 150 µM; in the experiment on T-47D breast, over 150 µM; in the experiment on HCT-116 colon it was over 150 µM; in the experiment on SW-620 colon, over 150 µM. For the same compound, the TGI in the experiment on SF-539 CNS is over 142 µM; in the experiment on NCI-H226 lung it was over 150 µM; in the experiment with IGROV1 ovarian, over 135 µM; with OVCAR-4 ovarian, over 143 µM.
